Assays:
[1] = system: PD-OVCA#9 (mutBRCA1: c. 4389C > G; mutBRCA2: c6252delT); assay: Growth inhibition, MTS assay, PD-OVCA#9; assay type: cell-based, human; settings: Homo sapiens, PD-OVCA#9, pathogenic mutant BRCA1/2, 48 hours
From the text: (§1) Table 2 refers to the growth inhibitory effect of COMP, olaparib and cisplatin (CDDP) in a panel of human immortalized breast (T47D, MCF-7, MDA-MB-231, MDA-MB-468, SK-BR-3 and HCC1937), ovarian and endocervical (OCVAR, SKOV-3, […],IGROV-1 and HeLa), pancreatic (PANC-1 and MIAPACA), neuroblastoma (SHSY-5Y), lung (NCI-H460), prostate (VCaP) melanoma (A375 and SK-MEL-5) and glioblastoma (SF-208) cancer cells, immortalized normal MCF10a and HFF1 human cells, and patient-derived ovarian (PD-OVCA #1, #9, #41, #49 and #62) cancer cells. […] Data are mean±SEM (n=5).
(§2) In an embodiment, IC50 values were determined by Sulforhodamine B (SRB) or MTS [3-(4,5-dimethylthiazol-2-yl)-5-(3-carboxymethoxyphenyl)-2-(4-sulfophenyl)-2H-tetrazolium] assay in immortalized and PD-OVCA cells, respectively. Cancer cells were plated in 96-well plates and incubated for 24 hours. Cells were then exposed to serial dilutions of compounds for 48 hours. The solvent DMSO corresponding to the maximum concentration used in these assays (0.025%) was included as control. Results are the mean±S.E.M. of 3-5 independent experiments.

MiaPACA = assay: Growth inhibition, SRB assay, MiaPACA; assay type: cell-based; settings: Homo sapiens, MIA PaCa-2, wild-type BRCA1/2, 48 hours
From the text: as §1, §2

IGROV-1 tumors = assay: In vivo antitumor activity in xenograft mice; settings: 2 mg/kg intraperitoneal, seven administrations; compared to vehicle or 50 mg/kg of olaparib
Experimental: (§3) FIG. 14 illustrates the in vivo antitumor activity of COMP. C57BL/6-Rag2−/−IL2rg−/− xenograft mice, carrying IGROV-1 cells, were treated with vehicle (control), or 2 mg/kg of COMP or 50 mg/kg of olaparib by intraperitoneal injection three times per week (seven administrations in total). The treatment was initiated when palpable tumors were established (^˜100 mm3). […] In FIGS. 14A-C, data are mean±SEM, n=13 animals.

[2] = Body and organ weight of treated xenograft mice; assay type: in vivo; settings: 2 mg/kg intraperitoneal, seven administrations; compared to vehicle
Experimental: as §3

[3] = system: triple-negative breast cancer and ovarian cancer cells; assay: ROS generation (H2DCFDA flow cytometry); assay type: cell-based, human; settings: 6 and 12 μM, 48 hours
Experimental: (§4) Cell cycle phases were analysed by flow cytometry using propidium iodide (PI) and quantified using the FlowJo software. Apoptosis and ROS were analysed by flow cytometry using FITC-Annexin V/PI and 2′,7′-dichlorodihydrofluorescein diacetate (H2DCFDA) respectively.

[4] = system: key proteins involved in homologous recombination, proliferation and chemoresistance; assay: Protein expression by western blot; assay type: cell-based, human; settings: 12 μM, 48 hours
Experimental: FIG. 6 illustrates the effect of 12 μM COMP on the (A-B) expression of key proteins involved in homologous recombination, proliferation and chemoresistance in triple-negative breast cancer and ovarian cancer cells after 48 hours of treatment.
In an embodiment, the COMP compound modulated the expression of key proteins involved in homologous DNA repair, proliferation, chemoresistance, induced cell cycle arrest, apoptosis and ROS generation, in triple-negative breast cancer and ovarian cancer cells.

[5] = system: triple-negative breast cancer and ovarian cancer cells; assay: Apoptosis by flow cytometry (FITC-Annexin V/PI); assay type: cell-based, human; settings: 6 and 12 μM, 48 hours
Experimental: as §4

HCC1937 (5382insC) = assay: Growth inhibition, SRB assay, HCC1937; assay type: cell-based, human; settings: Homo sapiens, HCC1937, 48 h
From the text: as §1, §2

BRCA1-BARD1 interaction = assay: Co-IP of BRCA1-BARD1 interaction; assay type: cell-based, human; settings: 12 and 20 μM; 18 hours (MDA-MB-231, HCC1937), 24 hours (IGROV-1)
Experimental: (FIGS. 11A-D) Co-IP was performed in MDA-MB-231 (FIG. 11A), HCC1937 (FIG. 11B) and IGROV-1 (FIG. 11C) cells treated with 12 and 20 μM COMP for 18 hours (in MDA-MB-231 and HCC1937 cells) and 24 hours (in IGROV-1 cells). Assay was performed using the Pierce classic magnetic IP and Kit followed by western blot detection. In FIGS. 11A-C, representative immunoblots are shown; whole-cell lysate (Input).

RAD51 = RAD51 foci formation by immunofluorescence; assay type: cell-based, human; settings: 12 μM, 48 hours
Experimental: FIG. 10 illustrates the effect of 12 μM COMP on (A) γH2AX expression levels and on (FIG. 10B) γH2AX and RAD51 foci formation, and BRCA1 foci formation and cellular localization after 48 hours of treatment. […] FIG. 10B are representative images generated using Fiji software (scale bar=100 μm; 400 × magnification).

PD-OVCA#49 = assay: Growth inhibition, MTS assay, PD-OVCA#49; assay type: cell-based, human; settings: Homo sapiens, PD-OVCA#49, wild-type BRCA1/2, 48 hours
From the text: as §1, §2

[6] = system: pancreatic cancer cells (PANC-1 and MIAPACA); assay: Growth inhibition, pancreatic cancer cells; assay type: cell-based; settings: Homo sapiens, Pancreatic cancer cell, 48 hours
Experimental: In an embodiment, the activity of COMP compound was tested in an array of human normal and cancer cell lines (Table 2, FIG. 2).
as §1, §2

NCI-H460 = assay: Growth inhibition, SRB assay, NCI-H460; assay type: cell-based; settings: Homo sapiens, NCI-H460, wild-type BRCA1/2, 48 hours
From the text: as §1, §2

HeLa = assay: Growth inhibition, SRB assay, HeLa; assay type: cell-based; settings: Homo sapiens, wild-type BRCA1/2, 48 hours
From the text: as §1, §2

MCF-7 = assay: Growth inhibition, SRB assay, MCF-7; assay type: cell-based, human; settings: Homo sapiens, MCF7, 48 h
From the text: as §1, §2

Vcap = assay: Growth inhibition, SRB assay, Vcap; assay type: cell-based; settings: Homo sapiens, wild-type BRCA1/2, 48 hours
From the text: as §1, §2

HFF-1 = assay: Growth inhibition, SRB assay, normal HFF-1 cells; assay type: cell-based, human; settings: Homo sapiens, HFF-1, 48 h
From the text: as §1, §2

IC50 (MiaPACA): 4.5 ± 0.4 µM
organs weight (spleen, liver, heart and kidneys) [2]: no significant variation
IC50 (HCC1937 (5382insC); HCC1937, BRCA1 mutant, 48 hours (second Table 2)): 5.2 µM
IC50 (HCC1937 (5382insC); HCC1937, mutant BRCA1, 48 hours): 5.2 ± 1.3 µM
IC50 [6]: 4.5 µM
IC50 (NCI-H460): 15.5 ± 1.5 µM
IC50 (HeLa): 5.8 ± 0.8 µM
IC50 (MCF-7; MCF-7, BRCA1 wild-type, 48 hours (second Table 2)): 12 µM
IC50 (MCF-7; MCF-7, wild-type BRCA1/2, 48 hours): 12 ± 1.5 µM
IC50 (Vcap): 11.7 ± 3.4 µM
SMILES: CC[C@H]1CN(C)C2Cc3c([nH]c4ccccc34)/C(=N/Nc3ccc(Br)cn3)C[C@@H]1[C@@H]2C(=O)OC [COMP, methyl (5R,6S,14S,E)-8-(2-(5-bromopyridin-2-yl) hydrazineylidene)-5-ethyl-3-methyl-2,3,4,5,6,7,8,9-octahydro-1H-2,6-methanoazecino [5,4-b]indole-14-carboxylate]
IC50 [1]: 5.1 ± 1 µM
growth of IGROV-1 tumors (IGROV-1 tumors): significantly inhibited
body weight [2]: no significant variation
ROS production [3]: increases ROS production
PUMA and cleaved PARP protein expression levels [4]: increase
expression levels of DNA damage repair proteins (BRCA1, BRCA2, RAD51, RAD52, FANCD2, pATM, pATR) and resistance-related proteins (CDK2, survivin, BARD1) [4]: significantly decreased
expression of p21 [4]: increased expression of p21
apoptotic cell death (Annexin-V-positive cells) [5]: significant increase in apoptotic cell death
BRCA1-BARD1 interaction (BARD1 co-immunoprecipitated with BRCA1) (BRCA1-BARD1 interaction): disruption of the BRCA1-BARD1 interaction
RAD51-foci formation (RAD51): pronounced reduction
IC50 (PD-OVCA#49): 15.1 ± 1.4 µM
IC50 (HFF-1; HFF1 normal cells, 48 hours (second Table 2)): 33.6 µM
IC50 (HFF-1; HFF-1 normal cells, 48 hours): 33.6 µM

Source: patent US20250345317A1, “New pharmaceutical compounds, methods and uses thereof” (BBIT-THERAPEUTICS, LDA., priority 2020, published 2025)
